Results as given in ChEMBL document CHEMBL4308841, “Synthesis, in vitro antiproliferative activity, and kinase inhibitory effects of pyrazole-containing diarylureas and diarylamides” (Eur J Med Chem, 2018).

What was measured:
UO-31 = assay: Growth inhibition of human UO31 cells assessed as cell growth at 100 uM incubated for 48 hrs by sulforhodamine B assay relative to control; format: functional; conditions: UO-31, 48 h, read-out: Activity
NCI-H322M [1] = assay: Growth inhibition of human NCI-H322M cells assessed as cell growth at 0.01 uM incubated for 48 hrs by sulforhodamine B assay relative to control; format: functional; conditions: read-out: Activity
BT-549 [2] = assay: Growth inhibition of human BT549 cells assessed as cell growth at 0.01 uM incubated for 48 hrs by sulforhodamine B assay relative to control; format: functional; conditions: BT-549, 48 h, read-out: Activity
SNB-19 [3] = assay: Growth inhibition of human SNB19 cells assessed as cell growth at 0.1 uM incubated for 48 hrs by sulforhodamine B assay relative to control; format: functional; conditions: SNB-19, 48 h, read-out: Activity
KM12 = assay: Growth inhibition of human KM12 cells incubated for 48 hrs by sulforhodamine B assay; format: functional, cell-based; conditions: KM12, 48 h
NCI-H522 = assay: Growth inhibition of human NCI-H522 cells assessed as cell growth at 1 uM incubated for 48 hrs by sulforhodamine B assay relative to control; format: functional; conditions: NCI-H522, 48 h, read-out: Activity
MOLT-4 = assay: Growth inhibition of human MOLT4 cells assessed as cell growth at 1 uM incubated for 48 hrs by sulforhodamine B assay relative to control; format: functional; conditions: MOLT-4, 48 h, read-out: Activity
T47D = assay: Growth inhibition of human T47D cells assessed as cell growth at 0.01 uM incubated for 48 hrs by sulforhodamine B assay relative to control; format: functional; conditions: read-out: Activity
CCRF-CEM [4] = assay: Growth inhibition of human CCRF-CEM cells assessed as cell growth at 100 uM incubated for 48 hrs by sulforhodamine B assay relative to control; format: functional; conditions: read-out: Activity
HCT-15 = assay: Growth inhibition of human HCT15 cells assessed as cell growth at 0.1 uM incubated for 48 hrs by sulforhodamine B assay relative to control; format: functional; conditions: HCT-15, 48 h, read-out: Activity
SK-MEL-28 = assay: Growth inhibition of human SK-MEL-28 cells assessed as cell growth at 1 uM incubated for 48 hrs by sulforhodamine B assay relative to control; format: functional; conditions: SK-MEL-28, 48 h, read-out: Activity
M14 = assay: Growth inhibition of human M14 cells assessed as cell growth at 0.1 uM incubated for 48 hrs by sulforhodamine B assay relative to control; format: functional; conditions: M14, 48 h, read-out: Activity
BT-549 [5] = assay: Growth inhibition of human BT549 cells incubated for 48 hrs by sulforhodamine B assay; format: functional, cell-based; conditions: BT-549, 48 h
ACHN = assay: Growth inhibition of human ACHN cells incubated for 48 hrs by sulforhodamine B assay; format: functional, cell-based
786-0 = assay: Growth inhibition of human 786-0 cells incubated for 48 hrs by sulforhodamine B assay; format: functional, cell-based; conditions: 786-0, 48 h
SF-295 = assay: Growth inhibition of human SF295 cells assessed as cell growth at 100 uM incubated for 48 hrs by sulforhodamine B assay relative to control; format: functional; conditions: SF-295, 48 h, read-out: Activity
SNB-19 [6] = assay: Growth inhibition of human SNB19 cells assessed as cell growth at 100 uM incubated for 48 hrs by sulforhodamine B assay relative to control; format: functional; conditions: SNB-19, 48 h, read-out: Activity
SK-MEL-2 = assay: Growth inhibition of human SK-MEL-2 cells assessed as cell growth at 0.1 uM incubated for 48 hrs by sulforhodamine B assay relative to control; format: functional; conditions: SK-MEL-2, 48 h, read-out: Activity
CCRF-CEM [7] = assay: Growth inhibition of human CCRF-CEM cells assessed as cell growth at 0.01 uM incubated for 48 hrs by sulforhodamine B assay relative to control; format: functional; conditions: read-out: Activity
U-251 = assay: Growth inhibition of human U251 cells assessed as cell growth at 0.01 uM incubated for 48 hrs by sulforhodamine B assay relative to control; format: functional; conditions: U-251, 48 h, read-out: Activity
MDA-MB-468 = assay: Growth inhibition of human MDA-MB-468 cells assessed as cell growth at 0.01 uM incubated for 48 hrs by sulforhodamine B assay relative to control; format: functional; conditions: MDA-MB-468, 48 h, read-out: Activity
SK-MEL-5 = assay: Growth inhibition of human SK-MEL-5 cells assessed as cell growth at 100 uM incubated for 48 hrs by sulforhodamine B assay relative to control; format: functional; conditions: SK-MEL-5, 48 h, read-out: Activity
NCI-H322M [8] = assay: Growth inhibition of human NCI-H322M cells incubated for 48 hrs by sulforhodamine B assay; format: functional, cell-based
Hs-578T = assay: Growth inhibition of human Hs578T cells assessed as cell growth at 0.1 uM incubated for 48 hrs by sulforhodamine B assay relative to control; format: functional; conditions: read-out: Activity
HL-60(TB) = assay: Growth inhibition of human HL-60(TB) cells assessed as cell growth at 0.1 uM incubated for 48 hrs by sulforhodamine B assay relative to control; format: functional; conditions: HL-60, 48 h, read-out: Activity
UACC-62 = assay: Growth inhibition of human UACC62 cells assessed as cell growth at 0.1 uM incubated for 48 hrs by sulforhodamine B assay relative to control; format: functional; conditions: UACC-62, 48 h, read-out: Activity
OVCAR-3 = assay: Growth inhibition of human OVCAR3 cells assessed as cell growth at 0.01 uM incubated for 48 hrs by sulforhodamine B assay relative to control; format: functional; conditions: OVCAR-3, 48 h, read-out: Activity
SW-620 = assay: Growth inhibition of human SW620 cells assessed as cell growth at 0.1 uM incubated for 48 hrs by sulforhodamine B assay relative to control; format: functional; conditions: SW-620, 48 h, read-out: Activity
IGROV-1 = assay: Growth inhibition of human IGROV1 cells incubated for 48 hrs by sulforhodamine B assay; format: functional, cell-based; conditions: IGROV-1, 48 h
CAKI-1 = assay: Growth inhibition of human Caki1 cells assessed as cell growth at 0.1 uM incubated for 48 hrs by sulforhodamine B assay relative to control; format: functional; conditions: CAKI-1, 48 h, read-out: Activity
[9] = read-out: LC50 (the source's name)
[10] = read-out: pLC50 (the source's name) (converted)

## O=C(Nc1cccc(-n2cc(-c3ccncc3)c(-c3cc(O)cc(Cl)c3)n2)c1)c1ccc(N2CCOCC2)c(C(F)(F)F)c1
UO-31
  growth at 100 µM: -33%
NCI-H322M [1]
  growth at 0.01 µM: 56%
BT-549 [2]
  growth at 0.01 µM: 100%
SNB-19 [3]
  growth at 0.1 µM: 105%
KM12; read-out: GI50
  GI50: 1.21 µM
KM12; [9]
  CC50: > 100 µM
KM12; read-out: TGI
  TGI: > 100 µM
KM12; read-out: pGI50 (converted)
  GI50: 1.2 µM
KM12; [10]
  CC50: > 100 µM
KM12; read-out: pTGI (converted)
  TGI: > 100 µM
NCI-H522
  growth at 1 µM: 40%
MOLT-4
  growth at 1 µM: 54%
T47D
  growth at 0.01 µM: 97%
CCRF-CEM [4]
  growth at 100 µM: 2%
HCT-15
  growth at 0.1 µM: 94%
SK-MEL-28
  growth at 1 µM: 44%
M14
  growth at 0.1 µM: 91%
BT-549 [5]; read-out: GI50
  GI50: 4.21 µM
BT-549 [5]; [9]
  CC50: > 100 µM
BT-549 [5]; read-out: TGI
  TGI: > 100 µM
BT-549 [5]; read-out: pGI50 (converted)
  GI50: 4.17 µM
BT-549 [5]; [10]
  CC50: > 100 µM
BT-549 [5]; read-out: pTGI (converted)
  TGI: > 100 µM
ACHN; read-out: GI50
  GI50: 1.54 µM
ACHN; [9]
  CC50: > 100 µM
ACHN; read-out: TGI
  TGI: 29.3 µM
ACHN; read-out: pGI50 (converted)
  GI50: 1.82 µM
ACHN; [10]
  CC50: > 100 µM
ACHN; read-out: pTGI (converted)
  TGI: 29.5 µM
786-0; read-out: GI50
  GI50: 2.24 µM
786-0; [9]
  CC50: 41 µM
786-0; read-out: TGI
  TGI: 10.1 µM
786-0; read-out: pGI50 (converted)
  GI50: 2.24 µM
786-0; [10]
  CC50: 40.7 µM
786-0; read-out: pTGI (converted)
  TGI: 10 µM
SF-295
  growth at 100 µM: -81%
SNB-19 [6]
  growth at 100 µM: -12%
SK-MEL-2
  growth at 0.1 µM: 101%
CCRF-CEM [7]
  growth at 0.01 µM: 98%
U-251
  growth at 0.01 µM: 97%
MDA-MB-468
  growth at 0.01 µM: 92%
SK-MEL-5
  growth at 100 µM: -72%
NCI-H322M [8]; read-out: GI50
  GI50: 2.53 µM
NCI-H322M [8]; [9]
  CC50: > 100 µM
NCI-H322M [8]; read-out: TGI
  TGI: > 100 µM
NCI-H322M [8]; read-out: pGI50 (converted)
  GI50: 2.82 µM
NCI-H322M [8]; [10]
  CC50: > 100 µM
NCI-H322M [8]; read-out: pTGI (converted)
  TGI: > 100 µM
Hs-578T
  growth at 0.1 µM: 90%
HL-60(TB)
  growth at 0.1 µM: 114%
UACC-62
  growth at 0.1 µM: 91%
OVCAR-3
  growth at 0.01 µM: 111%
SW-620
  growth at 0.1 µM: 105%
IGROV-1; read-out: GI50
  GI50: 5.12 µM
IGROV-1; [9]
  CC50: > 100 µM
IGROV-1; read-out: TGI
  TGI: > 100 µM
IGROV-1; read-out: pGI50 (converted)
  GI50: 5.13 µM
IGROV-1; [10]
  CC50: > 100 µM
IGROV-1; read-out: pTGI (converted)
  TGI: > 100 µM
CAKI-1
  growth at 0.1 µM: 93%
